In US8349801B2, “Peptide ligands for G-protein coupled receptors” (priority 2006, dated 2013):
No end group written: not given here.

How the values were obtained:
[1] = test system: aortic rings from Wistar rat; assay: Vasorelaxant activity in phenylephrine pre-contracted aortic rings
Excerpt: Male Wistar rats of the age of 13-14 weeks (body weight: 250 to 300 g) were used. The rats were exposed to light-dark cycle of 12 hs (day—06:00 to 18:00; night—18:00 to 06:00) controlled by timer. Rats were killed by decapitation and exsanguination and tissues were rapidly removed.
Rings (3-4 mm) from the descending thoracic aorta, free of adipose and connective tissue, were set up in gassed (95% O2 and 5% CO2) Krebs-Henseleit solution (mmol/L): NaCl 110.8, KCl 5.9, NaHCO3 25.0, MgSO4 1.07, CaCl2 2.49, NaH2PO4 2.33 and glucose 11.51, at 37° C., under a tension of 1.0 g, for 1 hour to equilibrate. The presence of functional endothelium was assessed by the ability of Acetylcholine (1 μM) to induce more than 70% relaxation of vessels pre-contracted with phenylephrine (0.3 μM) (Lemos et al., 2005). When necessary, the endothelium was removed by rubbing the intimal surface with a wooden stick. Mechanical activity, recorded isometrically by a force transducer (Panlab, model number TR1210, Spain), was fed to an amplifier-recorder (Powerlab 4/20, ADInstruments, Inc.) and to a personal computer equipped with an analogue-to-digital converter board (AD16JR; World Precision Instruments, Inc.), using CVMS data acquisition/recording software (World Precision Instruments, Inc.).
The vasorelaxant activity of peptides —P61_S (SEQ ID NO:10), P61 (SEQ ID NO.9)-dimer (P61_D), P33_V (SEQ ID NO:7) and P33 (SEQ ID NO:6)-dimer (P33_D) were measured in vessels (N=5-8) with or without functional endothelium pre-contracted to the same tension level (approximately 1.5 g of tension) induced by submaximal concentrations of phenylephrine (0.01 μM). For comparison, the effect of Ang-(1-7) was also tested (N=4)
P61_S (SEQ ID NO:10), P61 (SEQ ID NO9)-dimer (P61_D), P33_V (SEQ ID NO:7) or P33 (SEQ ID NO:6)-dimer (P33_D) were added in increasing cumulative concentrations (0.0001 to 1 μM) once the response to phenylephrine had stabilized (FIG. 28). In order to verify the participation of endothelium-derived products in the relaxant effect of peptides, experiments were performed in the presence of 100 μM N′-Nitro-L-Arginine Methyl Ester-[L-NAME]—a nonselective inhibitor of nitric oxide synthase. In experiments performed in the presence of L-NAME, vessels were pre-contracted with 0.03 μM of phenylephrine, to achieve the same tension level as the others. L-NAME was added to the bath 20 min prior to the addition of phenylephrine.
Results are presented as mean±SEM. Two-way analysis of variance (ANOVA) with Bonferroni multiple comparison post-test was used to compare concentration response curves obtained in aortic rings. The vasodilator effect of P61_S (SEQ ID NO:10), P61 (SEQ ID N09)-dimer (P61_D), P33_V (SEQ ID NO:7), P33 (SEQ ID NO:6)-dimer (P33_D) and Ang-(1-7) were expressed as percentage decrease in maximal contraction induced by phenylephrine. All statistical analyses were considered significant when p<0.05.

[2] = target: T1, Mas receptor (Homo sapiens, UniProt P04201); assay: Calcium flux in CHO-K1 cells co-transfected with Mas receptor and Gα16; format: cell-based; details: dose response
T1 construct: expressed in transfected cells; host or cells: CHO-K1 (ATCC-CCL-61), transient co-transfection
T1 sequence (P04201 1-325): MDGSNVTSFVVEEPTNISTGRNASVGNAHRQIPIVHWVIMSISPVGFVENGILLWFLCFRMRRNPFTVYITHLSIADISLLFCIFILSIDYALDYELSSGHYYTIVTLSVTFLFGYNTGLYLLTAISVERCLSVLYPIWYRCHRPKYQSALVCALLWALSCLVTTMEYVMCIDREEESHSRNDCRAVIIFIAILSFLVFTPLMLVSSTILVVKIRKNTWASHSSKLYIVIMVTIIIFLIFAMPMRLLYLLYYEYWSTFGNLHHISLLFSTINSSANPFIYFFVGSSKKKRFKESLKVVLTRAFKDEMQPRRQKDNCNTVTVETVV
Description: The assay was carried out in CHO cells were transiently transfected with the GPCR of choice, by utilizing the promiscuous Gα16 to divert signaling to the Gq pathway, thus enabling readout of GPCR activation by testing for Calcium flux as described by Liu et al 2003 (Biomol Screen 8, 39-49).
All the peptides thus obtained were tested for their ability to change calcium flux in CHO—K1 cells (ATCC-CCL-61) transiently co-transfected with an expression vector containing the GPCR of choice and expression vector containing the Gα16 encoding cDNA. Expression constructs containing cDNA clones for MrgX1, MrgX2, Mas or FPRL1 were commercially obtained in one of the following expression vectors: pcDNA3.1, pCMV6, or MO2.
Transient transfections were performed using CHO—K1 cells as host cells. Cells (12 million) were plated into T75 flasks on the day preceding transfection. Cells were transfected with the appropriate GPCR expression vector and with a vector expressing Gα16 using a lipid-based reagent, MTI, according to the manufacturer's recommendation. Cells were transfected for 5 hours, then re-plated into 96-well dishes (60,000 cells per well) and grown overnight.
On the day of the experiment, cells were loaded with Fluo4-NW (Invitrogen) according to the manufacturer's recommendation. Plates were loaded into a FlexStation™ (Molecular Devices) plate reader and fluorescence was monitored. Seventeen seconds following initiation of reading, cells were stimulated with the indicated agonist/compound at final concentration of 1 μM. Each 96 well plate contained cells transfected with one GPCR expression vector and each of the examined peptides was tested in triplicate.
We defined a hit as a peptide which elicited a clear and distinct increase in intracellular calcium that is clearly visible and statistically significant upon examination of the calcium trace for at least two repeats. The criterion for statistical significance was a p-value lower than 0.001 in a t-test comparing the levels of calcium before and after peptide addition.
Based on dose response experiments, EC50 best fit values were calculated by non-linear regression of sigmoidal dose-response curves, using Prism version 4 (GraphPad Software Inc., San Diego, Calif.). The formulae for the sigmoidal dose-response curves was defined as Y=Bottom+(Top−Bottom)/(1+10^ (LogEC50−X)*HillSlope))
The ability of Peptides to change calcium flux was examined in CHO—K1 cells co-transfected with Mas receptor and Gα16.

FLGYCIYLNRKRRGDPAFKRRLRD (also: dimer via cysteine; listed as Homo sapiens) [Peptide P61_dimer]
vasodilator effect in the presence of L-NAME ([1]; 100 μM L-NAME, NO synthase inhibitor): markedly inhibited
vasodilator effect in the absence of functional endothelium ([1]; endothelium-denuded vessels): abolished
Maximal values for the relaxant effect (Emax) ([1]; vessels with endothelium, 0.0001 to 1 μM cumulative, mean±SEM): 20.45±5.11%
ability to induce calcium flux, P61-related peptides compared [2]: more potent than the monomeric P61 peptides
